Paper PMC7051184, “C9orf72 arginine-rich dipeptide repeat proteins disrupt karyopherin-mediated nuclear import” (eLife, 2020)
Where a SMILES comes first, the peptide text is derived from it.

What was measured:
[1] = Bead halo assay, bare neutravidin beads (non-specific control); details: AF488-labeled, 200 nM, binding buffer
Procedure: The bead halo assay was carried out as described with minor modifications ([Patel and Rexach, 2008]), using […] polystyrene beads coated with neutravidin (for biotinylated proteins) or glutathione (for GST-fusion proteins) (Spherotech, Lake Forest, IL). Beads were coated overnight at 4°C at saturating concentrations per manufacturers’ instructions and rinsed 2x in binding buffer (20 mM HEPES [pH 7.4], 150 mM KOAc, 2 mM Mg(OAc)2, 1 mM DTT, 0.1% Tween-20). Immediately prior to the assay, fluorescent bait proteins and beads were combined with 4x assay buffer (40 mM EDTA, 40 mg/ml BSA, 500 mM NaCl, and 0.2% Tween) to a total of 40 µL per well, in optical glass-bottom 96-well plates (Cellvis, Mountain View, CA). Reactions were allowed to equilibrate at room temperature for a minimum of 30 min prior to imaging at 100x on an LSM800 confocal microscope (Zeiss, Oberkochen, Germany). Intensity profiles comparing the maximum rim intensity to the background were plotted in ImageJ (NIH) by an investigator blinded to experimental conditions.

RPS6 = experiment: DPR aggregation assay and western blot, RPS6; type: biochemical, human; details: for Rps6 band density, % untr control: Fig 5-suppl 3C, normalized to untreated HEK on same membrane; for RPS6 band density, % control: normalized to untreated HEK cells on the same membrane;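 on Rps6 band density, % untr control: RNA rows contain added 20 µg total HEK RNA while no-RNA rows lack it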
Procedure: (§1) Supernatant and pellet fractions (for all 5 DPRs, and control/buffer only) were prepared as in the nuclear transport assays, by adding 100 µM 10mers to 2.5 mg/ml HEK lysate in 100 µL TRB. Supernatants were boiled in Laemmli (BioRad) for 5 min. Pellets were boiled for 15 min followed by sonication in order to fully disperse aggregates for SDS-PAGE. Equal volumes of supernatant and pellet fractions were run on 4–12% Bolt Bis-Tris Plus gels (ThermoFisher), transferred to nitrocellulose membrane using an iBlot2 dry blotting system (ThermoFisher). Protein loading was analyzed by BLOT-Faststain (G-biosciences, St. Louis, MO), according to the manufacterers’ instructions. For immunodetection, membranes were blocked with 5% non-fat milk in TBST and probed by sequential incubation with the primary antibodies as detailed in the table below. Detection was by HRP-conjugated secondary antibodies/chemiluminescence using an ImageQuant LAS 4000 system (GE, Chicago, IL). To permit sequential probing of membranes without stripping, signals were quenched by incubation with prewarmed 30% H20_2 for 20 min ([Sennepin et al., 2009]). Band intensities were measured by ImageQuant software. For pellet vs. supernatant fractions, all were expressed as percent untreated control. For blots in Figure 1E, samples were run on 4–20% SDS PAGE minigels (ThermoFisher) and blotted to PVDF membranes (Immun-Blot PVDF, Bio-Rad) using the Bio-Rad TransBlot Turbo apparatus, and probed as above. The chemiluminescence signal was captured with a Bio-Rad ChemiDoc XRS+ digital imaging system.

Rps25 = experiment: DPR aggregation assay and western blot, Rps25; type: biochemical, human; details: Fig 5-suppl 3C, normalized to untreated HEK on same membrane;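 further: RNA rows contain added 20 µg total HEK RNA while no-RNA rows lack it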
Source text: Supplement elife-51685-fig5-data1.xlsx, sheet "Figure 5-figure suppl 3" | column: Rps25

Nup98 = experiment: DPR aggregation assay and western blot, Nup98; type: biochemical, human; details: 100 µM 10mer in 2.5 mg/ml HEK lysate, normalized to untreated HEK
Procedure: as §1

transportin-1 (Tnpo1) = experiment: DPR aggregation assay and western blot, Tnpo1; type: biochemical, human; details: for Tnpo1 band density, Pellet / Tnpo1 band density, Supernatant: 100 µM 10mer in 2.5 mg/ml HEK lysate, normalized to untreated HEK; for TNPO1 band density, % untr control: Fig 5-suppl 3C, normalized to untreated HEK on same membrane;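 on TNPO1 band density, % untr control: RNA rows contain added 20 µg total HEK RNA while no-RNA rows lack it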
Procedure: as §1

importin β = experiment: DPR aggregation assay and western blot, ImpB; type: biochemical, human; details: for ImpB band density, Pellet / ImpB band density, Supernatant: 100 µM 10mer in 2.5 mg/ml HEK lysate, normalized to untreated HEK; for ImpB band density, % untr control: Fig 5-suppl 3C, normalized to untreated HEK on same membrane;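 on ImpB band density, % untr control: RNA rows contain added 20 µg total HEK RNA while no-RNA rows lack it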
Procedure: as §1

RanGAP1 = experiment: DPR aggregation assay and western blot, RanGAP1; type: biochemical, human; details: for RanGAP1 band density, Pellet / RanGAP1 band density, Supernatant: 100 µM 10mer in 2.5 mg/ml HEK lysate, normalized to untreated HEK; for RanGAP1 band density, % untr control: Fig 5-suppl 3C, normalized to untreated HEK on same membrane
Procedure: as §1

TDP-43 = experiment: DPR aggregation assay and western blot, TDP-43; type: biochemical, human; details: for TDP43 band density, % untr control: Fig 5-suppl 3C, normalized to untreated HEK on same membrane; for TDP43 band density, % control: normalized to untreated HEK cells on the same membrane
Procedure: as §1

Ran = experiment: DPR aggregation assay and western blot, Ran; type: biochemical, human; details: for Ran band density, Pellet / Ran band density, Supernatant: 100 µM 10mer in 2.5 mg/ml HEK lysate, normalized to untreated HEK; for Ran band density, % untr control: Fig 5-suppl 3C, normalized to untreated HEK on same membrane
Procedure: as §1

Nup133 = experiment: DPR aggregation assay and western blot, Nup133; type: biochemical, human; details: 100 µM 10mer in 2.5 mg/ml HEK lysate, normalized to untreated HEK
Procedure: as §1

[2] = Pellet, no RNA (Untreated), blot 1
[3] = Pellet, no RNA (Untreated), blot 2
[4] = Supernatant, no RNA (Untreated), blot 1
[5] = Supernatant, no RNA (Untreated), blot 2

N=C(N)NCCC[C@H](NC(=O)[C@@H]1CCCN1C(=O)[C@H](CCCNC(=N)N)NC(=O)[C@@H]1CCCN1C(=O)[C@H](CCCNC(=N)N)NC(=O)[C@@H]1CCCN1C(=O)[C@H](CCCNC(=N)N)NC(=O)[C@@H]1CCCN1C(=O)[C@H](CCCNC(=N)N)NC(=O)[C@@H]1CCCN1C(=O)[C@H](CCCNC(=N)N)NC(=O)[C@@H]1CCCN1C(=O)[C@H](CCCNC(=N)N)NC(=O)[C@@H]1CCCN1C(=O)[C@H](CCCNC(=N)N)NC(=O)[C@@H]1CCCN1C(=O)[C@H](CCCNC(=N)N)NC(=O)[C@@H]1CCCN1C(=O)[C@H](CCCNC(=N)N)NC(=O)[C@@H]1CCCN1)C(=O)O [PR10] (H-PRPRPRPRPRPRPRPRPRPR-OH; N-terminus and C-terminus assumed)
Binding to bare beads [1]: modest non-specific binding | Rps6 band density, % untr control (RPS6; Pellet, RNA, blot 1): 396.86% | Rps6 band density, % untr control (RPS6; Pellet, RNA, blot 2): 295.15% | Rps6 band density, % untr control (RPS6; [2]): 455.82% | Rps6 band density, % untr control (RPS6; [3]): 297.04% | Rps6 band density, % untr control (RPS6; Supernatant, RNA, blot 1): 8.34% | Rps6 band density, % untr control (RPS6; Supernatant, RNA, blot 2): 9.83% | Rps6 band density, % untr control (RPS6; [4]): 2.35% | Rps6 band density, % untr control (RPS6; [5]): 1.09% | RPS6 band density, % control (RPS6; Pellet, Blot 1): 219.0 % control | RPS6 band density, % control (RPS6; Pellet, Blot 2): 275.0 % control | RPS6 band density, % control (RPS6; Supernatant, Blot 1): 3.7 % control | RPS6 band density, % control (RPS6; Supernatant, Blot 2): 6.4 % control | Rps25 band density, % untr control (Rps25; Pellet, RNA, blot 1): 302.37% | Rps25 band density, % untr control (Rps25; Pellet, RNA, blot 2): 467.96% | Rps25 band density, % untr control (Rps25; [2]): 306.71% | Rps25 band density, % untr control (Rps25; [3]): 525.42% | Rps25 band density, % untr control (Rps25; Supernatant, RNA, blot 1): 12.19% | Rps25 band density, % untr control (Rps25; Supernatant, RNA, blot 2): 16.30% | Rps25 band density, % untr control (Rps25; [4]): 0.89% | Rps25 band density, % untr control (Rps25; [5]): 1.06% | Nup98 band density, Pellet (Nup98; Blot 1): 109.9 % control | Nup98 band density, Supernatant (Nup98; Blot 1): 57.2 % control | Nup98 band density, Pellet (Nup98; Blot 2): 150.1 % control | Nup98 band density, Supernatant (Nup98; Blot 2): 67.5 % control | Tnpo1 band density, Pellet (transportin-1 (Tnpo1); Blot 1): 258.1 % control | Tnpo1 band density, Supernatant (transportin-1 (Tnpo1); Blot 1): 76.9 % control | Tnpo1 band density, Pellet (transportin-1 (Tnpo1); Blot 2): 476.3 % control | Tnpo1 band density, Supernatant (transportin-1 (Tnpo1); Blot 2): 65.0 % control | TNPO1 band density, % untr control (transportin-1 (Tnpo1); Pellet, RNA, blot 1): 162.49% | TNPO1 band density, % untr control (transportin-1 (Tnpo1); Pellet, RNA, blot 2): 169.58% | TNPO1 band density, % untr control (transportin-1 (Tnpo1); [2]): 284.53% | TNPO1 band density, % untr control (transportin-1 (Tnpo1); [3]): 326.13% | TNPO1 band density, % untr control (transportin-1 (Tnpo1); Supernatant, RNA, blot 1): 75.09% | TNPO1 band density, % untr control (transportin-1 (Tnpo1); Supernatant, RNA, blot 2): 93.47% | TNPO1 band density, % untr control (transportin-1 (Tnpo1); [4]): 65.77% | TNPO1 band density, % untr control (transportin-1 (Tnpo1); [5]): 83.87% | ImpB band density, Pellet (importin β; Blot 1): 818.3 % control | ImpB band density, Supernatant (importin β; Blot 1): 89.3 % control | ImpB band density, Pellet (importin β; Blot 2): 483.8 % control | ImpB band density, Supernatant (importin β; Blot 2): 77.0 % control | ImpB band density, % untr control (importin β; Pellet, RNA, blot 1): 176.94% | ImpB band density, % untr control (importin β; Pellet, RNA, blot 2): 208.79% | ImpB band density, % untr control (importin β; [2]): 231.77% | ImpB band density, % untr control (importin β; [3]): 273.94% | ImpB band density, % untr control (importin β; Supernatant, RNA, blot 1): 95.64% | ImpB band density, % untr control (importin β; Supernatant, RNA, blot 2): 121.54% | ImpB band density, % untr control (importin β; [4]): 76.39% | ImpB band density, % untr control (importin β; [5]): 117.49% | RanGAP1 band density, Pellet (RanGAP1; Blot 1): 413.6 % control | RanGAP1 band density, Supernatant (RanGAP1; Blot 1): 76.6 % control | RanGAP1 band density, Pellet (RanGAP1; Blot 2): 481.7 % control | RanGAP1 band density, Supernatant (RanGAP1; Blot 2): 84.2 % control | RanGAP1 band density, % untr control (RanGAP1; Pellet, RNA, blot 1): 309.83% | RanGAP1 band density, % untr control (RanGAP1; Pellet, RNA, blot 2): 267.45% | RanGAP1 band density, % untr control (RanGAP1; [2]): 288.68% | RanGAP1 band density, % untr control (RanGAP1; [3]): 278.19% | RanGAP1 band density, % untr control (RanGAP1; Supernatant, RNA, blot 1): 115.69% | RanGAP1 band density, % untr control (RanGAP1; Supernatant, RNA, blot 2): 95.48% | RanGAP1 band density, % untr control (RanGAP1; [4]): 62.58% | RanGAP1 band density, % untr control (RanGAP1; [5]): 76.25% | TDP43 band density, % untr control (TDP-43; Pellet, RNA, blot 1): 155.77% | TDP43 band density, % untr control (TDP-43; Pellet, RNA, blot 2): 157.99% | TDP43 band density, % untr control (TDP-43; [2]): 180.16% | TDP43 band density, % untr control (TDP-43; [3]): 165.43% | TDP43 band density, % untr control (TDP-43; Supernatant, RNA, blot 1): 71.23% | TDP43 band density, % untr control (TDP-43; Supernatant, RNA, blot 2): 80.31% | TDP43 band density, % untr control (TDP-43; [4]): 41.29% | TDP43 band density, % untr control (TDP-43; [5]): 36.83% | TDP43 band density, % control (TDP-43; Pellet, Blot 1): 424.3 % control | TDP43 band density, % control (TDP-43; Pellet, Blot 2): 185.6 % control | TDP43 band density, % control (TDP-43; Supernatant, Blot 1): 54.8 % control | TDP43 band density, % control (TDP-43; Supernatant, Blot 2): 45.9 % control | Ran band density, Pellet (Ran; Blot 1): 101.8 % control | Ran band density, Supernatant (Ran; Blot 1): 104.7 % control | Ran band density, Pellet (Ran; Blot 2): 132.9 % control | Ran band density, Supernatant (Ran; Blot 2): 105.7 % control | Ran band density, % untr control (Ran; Pellet, RNA, blot 1): 201.97% | Ran band density, % untr control (Ran; Pellet, RNA, blot 2): 271.01% | Ran band density, % untr control (Ran; [2]): 172.26% | Ran band density, % untr control (Ran; [3]): 224.02% | Ran band density, % untr control (Ran; Supernatant, RNA, blot 1): 114.46% | Ran band density, % untr control (Ran; Supernatant, RNA, blot 2): 110.30% | Ran band density, % untr control (Ran; [4]): 105.51% | Ran band density, % untr control (Ran; [5]): 113.60% | Nup133 band density, Pellet (Nup133; Blot 1): 156.5 % control | Nup133 band density, Supernatant (Nup133; Blot 1): 45.6 % control | Nup133 band density, Pellet (Nup133; Blot 2): 194.3 % control | Nup133 band density, Supernatant (Nup133; Blot 2): 40.2 % control
